Patent publication US20140206992A1, “METHOD FOR DIAGNOSING CANCER” (THE UNIVERSITY OF TOKYO, priority 2010, published 2014)

What was measured:
LAP = assay: Enzyme specificity: reaction with LAP; assay type: biochemical
Description: Enzyme specificity of Compound (2) was examined. The DMSO solution (5 mM) in a volume of 3 μL was dissolved in 3 mL of a 0.1 M sodium phosphate buffer (pH 7.4) at a final concentration of 5 μM, and LAP (0.4 U) was added to the solution to perform the enzymatic reaction at 37° C.

[1] = system: SHIN3 cells derived from human ovarian cancer (peritoneal dissemination model); assay: Live imaging of cancer model mouse using fluorescent endoscope; assay type: in vivo; conditions: 300 μL of 50 μM in PBS sprayed from endoscope tip
From the text: (§1) Disseminated metastasis of ovarian cancer to the peritoneum is known as a generally-occurring lethal complication of ovarian cancer. Such metastasis to the peritoneum begins to occur at a relatively early stage of ovarian cancer, the tumor invades the […], and falls into the abdominal cavity, and as a result, the tumor metastasizes to the other organs in the abdominal cavity as seeds are scattered (dissemination metastasis). In order to experimentally reproduce this phenomenon, SHIN3 cells of ovarian cancer origin were intraperitoneally administered to athymic mice to prepare a peritoneal dissemination model (Neoplasia, 8, pp. 607-612, 2006).
The SHIN3 cells derived from human ovarian cancer were cultured at 37° C. in the RPMI 1640 medium containing 10% FBS, 100 U/mL of penicillin, and 100 μg/mL of streptomycin under 5% CO2. After the cells reached subconfluent, the cells were washed with PBS (phosphate buffered saline), and removed with Trypsin-EDTA so that individual cells were separated. The treated cells were centrifuged (100×g, 4° C., 3 minutes), and after the supernatant was discarded, ice-cooled PBS was added to the cells to suspend them at a cell density of 1×10^6 cells/300 μL. […]
A small hole was formed in the abdominal part of the peritoneal dissemination model mouse under isoflurane anesthesia, a fluorescence endoscope was inserted into the abdominal cavity through the hole, and 300 μL of a solution of Compound (2) (γGlu-RhoHM) in PBS (50 μM) was sprayed in a misty state from the tip of the endoscope. Then, an excitation light of 450 to 480 nm was irradiated, and fluorescence of 516 to 556 nm was observed over time to obtain fluorescence endoscope movies and images. In each of the results obtained immediately after the spray (0 sec), and 30 seconds, 60 seconds, 90 seconds, and 10 minutes after the spray, a white light image is shown on the left side, and a fluorescence image is shown on the right side. The “white light image” is an image obtained in a usual endoscope mode, not a fluorescence mode for comparison.

[2] = system: SHIN3 cells derived from human ovarian cancer (peritoneal dissemination model); assay: Fluorescence imaging using cancer model mouse (peritoneal dissemination model); assay type: in vivo, athymic mice; conditions: 300 μL of 50 μM in PBS i.p., 30 minutes after administration, from outside the body and after abdominal section
From the text: as §1, with “2006). […]” for “2006).”
A solution of Compound (2) (γGlu-RhoHM) in PBS (50 μM) in a volume of 300 μL was intraperitoneally (i.p.) administered to the peritoneal dissemination model mice. Fluorescence imaging was performed by irradiating an excitation light of 450 to 480 nm from the outside of the mouse body under anesthesia 30 minutes after the i.p. administration, and observing fluorescence of 516 to 556 nm. Further, after the mice were sacrificed with CO2 gas, and exsanguination was performed, abdominal section was performed with surgery appliances for small animals to expose the abdominal cavity, an excitation light of 445 to 490 nm was irradiated, and fluorescence was measured at every 10 nm from 520 to 800 nm to obtain fluorescence spectrum images. […]

[3] = system: γ-glutamyltranspeptidase (GGT, equine kidney); assay: Enzymatic reaction of the fluorescent probe with γ-glutamyltranspeptidase (GGT); assay type: biochemical; conditions: 5 μM compound, excitation 501 nm
Description: Compound (2) (γGlu-RhoHM) formed by binding the acyl residue derived from glutamic acid to one amino group of Compound (1) (RhoHM) was dissolved in a neutral phosphate buffer, and γ-glutamyltranspeptidase (GGT, equine kidney, SIGMA G9270-100UN) was reacted with the solution. Specifically, 3 μL of a […] of the compound in dimethyl sulfoxide (DMSO) was dissolved at a final concentration of 5 μM in 3 mL of a 0.1 M sodium phosphate buffer (pH 7.4), and GGT (1.1 U) was added for the enzymatic reaction at 37° C. The excitation wavelength was 501 nm.
The DMSO solution of the compound (5 mM) in a volume of 3 μL was dissolved in 3 mL of a 0.1 M sodium phosphate buffer (pH 7.4) at a final concentration of 5 μM, and the enzymatic reaction was performed at 37° C. The values of fluorescence intensity observed with each amount of the enzyme 9 minutes after the addition of the enzyme were plotted. The excitation wavelength was 501 nm, and the fluorescence emission wavelength was 524 nm.

enzyme specificity (GGT versus LAP) (LAP; conclusion from the reactions with LAP (Example 3) and GGT (Example 2)): specifically detected GGT
Compound: Nc1ccc2c(c1)Oc1cc(NC(=O)CC[C@H](N)C(=O)O)ccc1C21OCc2ccccc21 (some centres unmarked) [Compound (2), γGlu-RhoHM]
increase of fluorescence intensity after reaction with LAP (LAP; 5 μM compound, 0.1 M sodium phosphate buffer pH 7.4, LAP 0.4 U, 37° C.): increase of fluorescence intensity was not observed
time to specific fluorescence emission of the cancerous part [1]: specifically emit fluorescence within several minutes
cancerous tissue fluorescence images 10 minutes after spray ([1]; 10 minutes after the spray): cancerous tissues were clearly imaged
cancerous tissue fluorescence images from immediately after spray to 90 seconds ([1]; excitation 450 to 480 nm, fluorescence 516 to 556 nm): cancerous tissue images became clearer
fluorescence of cancer sites in imaging [2]: strong green fluorescence was observed in a cancer site-specific manner
change of absorption and fluorescence intensity after reaction with GGT ([3]; 0.1 M sodium phosphate buffer pH 7.4, GGT 1.1 U, 37° C.): remarkable elevations of absorption and fluorescence intensity were immediately observed
fluorescence intensity versus added GGT amount ([3]; pH 7.4, 37° C., 9 minutes after addition of enzyme, emission 524 nm): linear increase of fluorescence intensity in an added GGT amount-dependent manner
